Values of other authors, collected in patent publication US20030236285A1, “Stabilized pharmaceutical compositions containing benzimidazole compounds” (priority 2002, published 2003).

Settings: pH higher than 7

rate of degradation: reduced to negligible
SMILES: Cc1c(OCC(F)(F)F)ccnc1C[S+]([O-])c1nc2ccccc2[nH]1 (stereo not shown) [lansoprazole]
